# Where a name gives a salt, the structure may show the parent alone. Read-outs that look alike come from different tables or passages of the source.
# Tests used:
# SARS-CoV-2 [1] = assay: microbe, parasite or virus in culture
# [2] = Uninfected host cell cytotoxicity counter screen; type: cell-based, human; conditions: human, uninfected HeLa-ACE2 cells; uninfected HeLa-ACE2, 24 h
# Protocol: Compounds were acoustically transferred into 1,536-well clear plates (Greiner Part. No. 789091). HeLa-ACE2 cells were maintained as described for the infection assay and seeded in the assay-ready plates at 400 cells/well in DMEM with 2% FBS and plates were incubated for 24 hours at 37 5% CO2. To assess cell viability, the Image-iT DEAD green reagent (Thermo Fisher) was used according to manufacturer instructions. Cells were fixed with 4% paraformaldehyde, and counterstained with DAPI. Fixed cells were imaged using the ImageXpress Micro Confocal High-Content Imaging System (Molecular Devices) with a 10× objective, and total live cells per well quantified in the acquired images using the Live Dead Application Module (MetaXpress).
# Image analysis was carried out with MetaXpress (version 6.5.4.532). Primary in vitro screen and the host cell cytotoxicity counter screen data were uploaded to Genedata Screener, Version 16.0.3-Standard. Data were normalized to neutral (DMSO) […] inhibitor controls (2.5 μM remdesivir for antiviral effect and 10 μM puromycin for infected host cell toxicity). For the uninfected host cell cytotoxicity counter screen 40 μM puromycin (Sigma) was used as the positive control. For dose response experiments compounds were tested in technical triplicates on different assay plates and dose curves were fitted with the four parameter Hill Equation. Technical replicate data were analyzed using median condensing.
# SARS-CoV-2 [3] = test system: SARS-CoV-2
# HeLa cells = conditions: read-out: IC50 (apoptosis); cited from earlier work
# Renal 1983 cell line = conditions: read-out: IC50 (antitumor activity in vitro); cited from earlier work
# MCF-7 cell line = conditions: read-out: IC50 (antitumor activity in vitro); cited from earlier work
# thymocytes = conditions: read-out: IC50 (apoptosis); cited from earlier work
# [4] = in vivo; cited from earlier work
# SARS-CoV-2 [5] = conditions: ReFRAME screen, same methods (Bakowski et al, 2020); cited from earlier work
# S. epidermidis = conditions: various strains; cited from earlier work
# S. pneumoniae = conditions: various strains; cited from earlier work
# S. viridans = conditions: various strains; cited from earlier work
# S. aureus = conditions: various strains; cited from earlier work
# [6] = test system: wild-type B-RAF-expressing human foreskin fibroblasts; conditions: cited from earlier work
# cancer cell lines = conditions: cited from earlier work
# [7] = test system: B-RAFV^600E-expressing A375P melanoma cells; conditions: cited from earlier work
# [8] = biological target: lysophosphatidic acyl transferase (LPAAT); conditions: cytokine-activated LPAAT; read-out: IC50 (generation of phosphatidic acid); cited from earlier work
# [9] = biological target: 3CL Protease (SARS-CoV-2) (Severe acute respiratory syndrome coronavirus 2, UniProt P0DTD1); assay: 3CL Protease (untagged, SARS-CoV-2) activity assay; type: biochemical
# From the text: The 3CL Protease Activity Assay described in this example is designed to measure 3CL Protease activity for screening and profiling applications, in a homogeneous assay with no time-consuming washing steps. The assay can be performed in a 96-well format, with purified untagged 3CL Protease, fluorogenic substrate, and 3CL Protease assay buffer for 100 enzyme reactions. 3CL inhibitor GC376 was included as a positive control. See https://bpsbioscience.com/3cl-protease-intagged-sars-cov-2-assay-kit-78042.
# 3CL Protease (SARS-CoV-2), no tag*; 3CL Protease Substrate (10 mM); 3CL Protease Assay Buffer; GC376, MW=507.5; 0.5 M DTT; Black, low binding microtiter plate; Plate sealing film. Fluorescent microplate reader capable of reading exc/em=360 nm/460 nm
# All Samples and Controls were Tested in Duplicate.
# • 1) Added 0.5 M DTT to 3CL Protease Assay Buffer so final DTT concentration was 1 mM. (e.g., added 10 μl of 0.5 M DTT to 5 ml assay buffer) (DTT was added just before use. Enough DTT-containing buffer as required for the assay was prepared. Remaining assay buffer was stored at −20° C.). • 2) Thaw 3CL Protease was thawed on ice. Upon first thaw, tube containing enzyme was briefly spun to recover the full content of the tube. Aliquoted 3CL Protease into single use aliquots. Stored remaining undiluted enzyme in aliquots at −80° C. • 3) Diluted 3CL Protease in Assay buffer (with 1 mM DTT) at 0.5 ng/μl (15 ng per reaction). • 4) Added 30 μl diluted 3CL Protease enzyme solution to wells designated as “Positive Control”, “Inhibitor Control” and “Test Sample”. Added 30 μl Assay buffer (with 1 mM DTT) to the “Blank” wells.
# • 5) Diluted 50 μg GC376 in 200 μl water to obtain a 500 μM solution. Aliquoted and stored remaining solution in aliquots at −80° C. Added 10 μl GC376 (500 μM) to the wells labeled “Inhibitor Control”. • 6) Prepared the inhibitor solution.
# (If the inhibitor compound was dissolved in DMSO, made a 100-fold higher concentration of the compound than the highest concentration tested in DMSO. Then made a 20-fold dilution in 1× assay buffer (at this step the compound concentration is 5-fold higher than the final concentration)).
# If the inhibitor compound is dissolved in water, made a solution of the compound 5-fold higher than the final concentration in 3CL Protease assay buffer (with 1 mM DTT). For example, diluting 50 μg GC376 in 200 μl water (step 5) creates a 500 μM solution. Adding 10 μl to the assay (final volume 50 μl) results in a 100 μM final concentration.
# 7) Added 10 μl inhibitor to each well designated “Test Sample”. Added 10 μl 1× assay buffer or 5% DMSO in water (depending on which inhibitor solution is used) to “Blank” and “Positive Control” wells. • 8) Preincubated enzyme with the inhibitor for 30 min at room temperature with slow shaking. • 9) Diluted 10 mM 3CL Protease substrate 1:50 in assay buffer with DTT, to make a 200 μM solution. Diluted only enough as was required for the assay. • 10) Started reaction by adding 10 μl of the substrate solution to each well (Final concentration of the 3CL Protease substrate in a 50 μl reaction was 40 μM). • 11) Incubated for 4 hours at room temperature with slow shaking. Sealed the plate with the plate sealer. Measured the fluorescence intensity in a microtiter plate-reading fluorimeter capable of excitation at a wavelength 360 nm and detection of emission at a wavelength 460 nm. The fluorescence intensity can also be measured kinetically. “Blank” value was subtracted from all other values. Data Analysis
# 3CL Protease activity assays were performed in duplicates. The fluorescence data were analyzed using the computer software, Graphpad Prism. In the absence of the compound, the fluorescence (Ft) in each data set was defined as 100% activity. In the absence of the 3CL Protease, the fluorescence (Fb) in each data set was defined as 0% activity. […]
# [10] = Severe acute respiratory syndrome coronavirus 2, HeLa-ACE2, 24 h
structure (smiles),measurement,setting,value
COc1ccc(C[C@H](N)C(=O)N[C@H]2[C@@H](O)[C@H](n3cnc4c(N(C)C)ncnc43)O[C@@H]2CO)cc1 [puromycin],EC50,"SARS-CoV-2 [1]; Severe acute respiratory syndrome coronavirus 2, HeLa-ACE2, read-out: EC50 (total cell numbers per well, compound toxicity in the context of infection)",0.547 ± 0.027 µM
Cc1c2c(nn1C)CSCc1cc(n(C)n1)CSc1cc(c3ccccc3c1)OCCCc1c(C(=O)O)n(C)c3c-2c(Cl)ccc13 [AZD-5991],CC50 at 24 h,[2],0.527 µM
same,EC50,SARS-CoV-2 [1]; [10],8.81 µM
same,"SI (selectivity index, CC50/EC50)",SARS-CoV-2 [3],0.06
same,activity in the HeLa-ACE2 cell-based SARS-CoV-2 assay (in words),SARS-CoV-2 [3],demonstrated activity
"COc1ccc2c(c1OC)C(=O)O[C@@H]2[C@H]1c2c(cc3c(c2OC)OCO3)CCN1C [Noscapine, (3S)-6,7-dimethoxy-3-[(5R)-5,6,7,8-tetrahydro-4-methoxy-6-methyl-1,3-dioxolo[4,5-g]isoquinolin-5-yl]-1(3H)-isobenzofuranone, monohydrochloride]",IC50,HeLa cells,25 µM
same,IC50,Renal 1983 cell line,39.1 µM
same,IC50,MCF-7 cell line,42.3 µM
same,IC50,thymocytes,10 µM
CCC(CC)COC(=O)[C@H](C)N[P@](=O)(OC[C@H]1O[C@@](C#N)(c2ccc3c(N)ncnn23)[C@H](O)[C@@H]1O)Oc1ccccc1 [Remdesivir],EC50,SARS-CoV-2 [1]; [10],0.13 µM
same,half-life (t 1/2),[4],1 h
same,increase in EC50 from MOI=1 to MOI=26,SARS-CoV-2 [3],2.7 fold
O=C(c1ccc(OCCN2CCCCC2)cc1)c1c(-c2ccc(O)cc2)sc2cc(O)ccc12 [raloxifene],EC50,SARS-CoV-2 [5],4.13 µM
"CCC[C@@H]1C[C@@H](C(=O)N[C@@H]([C@H]2O[C@H](SC)[C@H](O)[C@@H](O)[C@H]2O)[C@H](C)Cl)N(C)C1 [Clindamycin, methyl 7-chloro-6,7,8-trideoxy-6-[[[(2S,4R)-1-methyl-4-propyl-2-pyrrolidinyl]carbonyl]amino]-1-thio-L-threo-α-D-galacto-octopyranoside]",MIC,S. epidermidis,0.1 to 0.2 mg/L
same,MIC,S. pneumoniae,0.002 to 0.1 mg/L
same,MIC,S. viridans,0.005 to 0.2 mg/L
same,MIC,S. aureus,0.04 to 1.6 mg/L
Cc1cccc(/C=N/Nc2cc(N3CCOCC3)nc(OCCc3ccccn3)n2)c1 [apilimod],Emax,"SARS-CoV-2 [1]; Severe acute respiratory syndrome coronavirus 2, HeLa-ACE2, read-out: maximal efficacy (uninfected cells at the highest effective concentrations)",85 to 90%
same,increase in EC50 from MOI=1 to MOI=26,SARS-CoV-2 [3],3.7 fold
"CC(C)(C)c1nc(-c2cccc(NS(=O)(=O)c3c(F)cccc3F)c2F)c(-c2ccnc(N)n2)s1 [Dabrafenib, N-[3-[5-(2-amino-4-pyrimidinyl)-2-(1,1-dimethylethyl)-4-thiazolyl]-2-fluorophenyl]-2,6-difluorobenzenesulfonamide]",EC200 (caspase-3/7 activation),[6],"> 10,000 nM"
same,GI50,cancer cell lines; 16 cancer cell lines expressing mutant B-RAFV600E,< 0.2 µM
same,GI50,cancer cell lines; 19 cell lines expressing wild-type Ras and RAF,< 7 µM
same,GI50,cancer cell lines; five cell lines expressing other B-RAF mutants,< 0.03 µM
same,GI50,"cancer cell lines; four B-RAFV600E lines, 133 wild-type Ras and Raf lines, 18 mutant Ras lines not inhibited",> 10 µM
same,EC200 (caspase-3/7 activation),[7],71 nM
"C[C@@H](O)CCCCn1c(=O)c2c(ncn2C)n(C)c1=O [(R)-LSF, 3,7-dihydro-1-[(5R)-5-hydroxyhexyl]-3,7-dimethyl-1H-purine-2,6-dione]",IC50,[8],0.6 µM
"Nc1ncnc2c1nc(Cl)n2[C@@H]1O[C@@H]2COP(=O)(O)O[C@H]2[C@H]1O [Tocladesine, 8-chloroadenosine 3′,5′-monophosphate]",CC50 at 24 h,[2],> 39.8 µM
same,EC50,SARS-CoV-2 [1]; [10],> 9.59 µM
same,"SI (selectivity index, CC50/EC50)",SARS-CoV-2 [3],> 4.15
same,activity in the HeLa-ACE2 cell-based SARS-CoV-2 assay (in words),SARS-CoV-2 [3],active against COVID-19
same,activity in the HeLa-ACE2 cell-based SARS-CoV-2 assay (in words),SARS-CoV-2 [3]; listed as tocladesine,demonstrated activity
"COc1ccc2c3c1O[C@H]1C[C@@H](O)C=C[C@@]31CCN(C)C2 [Galantamine, (4aS,6R,8aS)-4a,5,9,10,11,12-hexahydro-3-methoxy-11-methyl-6H-benzofuro[3a,3,2-ef][2]benzazepin-6-ol]",3CL Protease Activity (Fluorescence count) Repeat1,[9]; Galantamine 0.009 μM,759
same,3CL Protease Activity (Fluorescence count) Repeat2,[9]; Galantamine 0.009 μM,768
same,3CL Protease Activity (Fluorescence count) Repeat1,[9]; Galantamine 0.018 μM,746
same,3CL Protease Activity (Fluorescence count) Repeat2,[9]; Galantamine 0.018 μM,752
same,3CL Protease Activity (Fluorescence count) Repeat1,[9]; Galantamine 0.070 μM,785
same,3CL Protease Activity (Fluorescence count) Repeat2,[9]; Galantamine 0.070 μM,783
same,3CL Protease Activity (Fluorescence count) Repeat1,[9]; Galantamine 0.14 μM,737
same,3CL Protease Activity (Fluorescence count) Repeat2,[9]; Galantamine 0.14 μM,760
same,3CL Protease Activity (Fluorescence count) Repeat1,[9]; Galantamine 0.28 μM,761
same,3CL Protease Activity (Fluorescence count) Repeat2,[9]; Galantamine 0.28 μM,797
same,3CL Protease Activity (Fluorescence count) Repeat1,[9]; Galantamine 4.5 μM,593
same,3CL Protease Activity (Fluorescence count) Repeat2,[9]; Galantamine 4.5 μM,543
same,activity at 0.009 µM,[9]; read-out: % Activity Repeat1,98%
same,activity at 0.018 µM,[9]; read-out: % Activity Repeat1,96%
same,activity at 0.07 µM,[9]; read-out: % Activity Repeat1,102%
same,activity at 0.14 µM,[9]; read-out: % Activity Repeat1,95%
same,activity at 0.28 µM,[9]; read-out: % Activity Repeat1,98%
same,activity at 4.5 µM,[9]; read-out: % Activity Repeat1,74%
same,activity at 0.009 µM,[9]; read-out: % Activity Repeat2,99%
same,activity at 0.018 µM,[9]; read-out: % Activity Repeat2,97%
same,activity at 0.07 µM,[9]; read-out: % Activity Repeat2,102%
same,activity at 0.14 µM,[9]; read-out: % Activity Repeat2,98%
same,activity at 0.28 µM,[9]; read-out: % Activity Repeat2,104%
same,activity at 4.5 µM,[9]; read-out: % Activity Repeat2,66%
same,effect on 3CL Protease activity (in words),[9]; test range 0.009-4.5 μM,inhibited 3CL Protease activity
